According to patent publication US20080015189A1, “Antimicrobial photoinactivation using chalcogen analogs of benzo(A)phenoxazinium dyes” (The General Hospital Corporation, priority 2006, published 2008):

Legend:
[1] = reference standard value, 25° C.; cited from earlier work
[2] = system: Candida albicans (ATCC 18804); test: Photodynamic inactivation of C. albicans (survival fraction by CFU after red light); assay type: cell-based; details: 20 μM dye, wash
Source text: (§1) The microorganisms studied were Escherichia coli (ATCC 25922), Enterococcus faecalis (ATCC 29212), and Candida albicans (ATCC 18804). The microorganism species chosen to evaluate the photoactivities of the dyes in the present study are important pathogens in the type of infections, such as wounds and burns, likely to be amenable to photodynamic therapy (PDT). E. faecalis is typical of Enterococci that frequently develop vancomycin resistance and are important nocosomial pathogens in post-surgical wounds and burns.^42 Although E. coli is generally thought of as an intestinal or urinary tract pathogen, there is increasing concern about its presence in wound infections and its ability to develop extended spectrum beta-lactamase resistance.^43,44 C. albicans is increasingly found in nocosomial infections in burns^45 and, to a lesser extent, in surgical wounds.^46
Cells were grown at 37° C. in aerobic conditions in a shaker at 150 rpm. […] C. albicans was grown for approximately 4 h to approximate density of 10^7 cells/mL corresponding to an OD of 6 at 650 nm (ten fold dilution measured). […]
Suspensions of microorganisms were incubated for 10 minutes with photosensitizer in the dark at room temperature. […] The fluorescence of dissolved pellets was measured on a spectrofluorimeter (FluoroMax3, SPEX Industries, Edison, N.J.). For EtNBA (1), the excitation wavelength was 625 nm, and the emission spectra of the solution were recorded from 630 to 750 nm. […] For EtNBSe (3), the excitation wavelength was 655 nm, and the emission was recorded in the range from 660 to 750 nm. The fluorescence was calculated from the height of the peaks recorded. […] Uptake values were obtained by dividing the number of nmol of sensitizer in the dissolved pellet by the number of colony-forming units (CFU) obtained by serial dilutions and the number of photosensitizer molecules/cell calculated using Avogadro's number.
(§2) Illumination was performed either after or before excess dye was washed out. […] Exact power was measured with a laser power meter (model FM/GS, Coherent, Santa Clara, Calif.).

[3] = Partition coefficient between 2-octanol and pH 7.4 buffered saline; assay type: physicochemical; details: for LogP, partition coefficient: pH 7.4
Source text: (§3) The relative photoactivities of the three photosensitizers studied herein were gauged by their abilities to generate singlet oxygen (^1O2) when illuminated with a beam of red light having an adjusted intensity such that each dye absorbed the same number of photons per unit time. […] Finally, because of the relevance of lipophilicity to the present studies, the partition coefficients for the PS between 2-octanol and phosphate-buffered saline (pH=7.4) are listed^18.

[4] = in vivo; cited from earlier work
[5] = system: Escherichia coli (ATCC 25922); test: Photodynamic inactivation of E. coli (survival fraction by CFU after red light); assay type: cell-based; details: 5 μM dye
Source text: as §1
(§4) Cells were grown at 37° C. in aerobic conditions in a shaker at 150 rpm. Brain-heart infusion broth (Difco, BD Diagnostic Systems, Sparks, Md.) was used for E. coli and E. faecalis, YM medium (Difco) was used for C. albicans. Exponential cultures obtained by reculturing stationary overnight precultures were used for all experiments. E. coli and E. faecalis were grown in fresh medium for approximately 1 h to a density of 10^8 cells/mL; the OD values at 650 nm were 0.6. C. albicans was grown for approximately 4 h to approximate density of 10^7 cells/mL corresponding to an OD of 6 at 650 nm (ten fold dilution measured). Exact cell numbers were confirmed by counting colony forming units obtained after serial dilution on square BHI (or YM for Candida) agar plates.
(§5) Stock solutions (2 mM) of the three chalcogen dyes were prepared in water and stored at 4° C. in the dark for no longer than 1 month before use. A non-coherent light source with interchangeable fiber bundles (LumaCare, London, UK) was employed. Thirty-nm band pass filters allowed total powers of roughly 1 W to be obtained from 630+/−15 nm for EtNBA (1), 652+/−15 nm for EtNBS (2), and 660+/−15 nm for EtNBSe (3).
Suspensions of microorganisms were incubated for 10 minutes with photosensitizer in the dark at room temperature. Unbound photosensitizer was washed out by centrifugation of the mixture of dye and microorganisms for 6 minutes at 1550g, followed by resuspension of washed pellets in 10 mL PBS without Ca^++/Mg^++. Aliquots (200 μL) of these suspensions were used for photodynamic inactivation (PDI) experiments; the remaining suspensions were centrifuged again, and the pellets were dissolved in 3 mL 10% SDS for at least 24 hours. These suspensions were used for photosensitizer uptake measurement. The fluorescence of dissolved pellets was measured on a spectrofluorimeter (FluoroMax3, SPEX Industries, Edison, N.J.). For EtNBA (1), the excitation wavelength was 625 nm, and the emission spectra of the solution were recorded from 630 to 750 nm. […] For EtNBSe (3), the excitation wavelength was 655 nm, and the emission was recorded in the range from 660 to 750 nm. The fluorescence was calculated from the height of the peaks recorded. […] Uptake values were obtained by dividing the number of nmol of sensitizer in the dissolved pellet by the number of colony-forming units (CFU) obtained by serial dilutions and the number of photosensitizer molecules/cell calculated using Avogadro's number.
as §2

[6] = Absorption and fluorescence spectra, fluorescence quantum yield; details: for λfl(nm), fluorescence maximum: in ethanol; for λabs(nm), absorption maximum: in ethanol containing 0.1% acetic acid; for Φfl, absolute fluorescence quantum yield: relative to Cresyl Violet standard at 25° C.
Experimental: UV/visible absorption spectra were recorded using an HP 8453 spectrophotometer. Corrected fluorescence spectra were recorded using a SPEX Fluorolog2 (solvent measurements) or a FluoroMax3 (microorganism measurements), SPEX Industries, Edison, N.J. Fluorescence quantum yields were measured relative to Cresyl Violet standard at 25° C.^32 Quantum yields for ^1O2 formation were determined by measuring the ^1O2-mediated bleaching of 1,3-diphenylisobenzofuran^12 relative to Methylene Blue (0.50)^33 at 25° C. ^1H NMR spectra were obtained using a Varian 400 MHz spectrometer with TMS as internal standard.

[7] = system: Enterococcus faecalis (ATCC 29212); test: Dye uptake and binding by microbial cells, E. faecalis (fluorescence of SDS-dissolved pellets); assay type: cell-based; details: 2 μM dye; for cell uptake (molecules per cell), rank order: 10 minute incubation, wash
Experimental: (§6) Suspensions of microorganisms were incubated for 10 minutes with photosensitizer in the dark at room temperature. Unbound photosensitizer was washed out by centrifugation of the mixture of dye and microorganisms for 6 minutes at 1550g, followed by resuspension of washed pellets in 10 mL PBS without Ca^++/Mg^++. Aliquots (200 μL) of these suspensions were used for photodynamic inactivation (PDI) experiments; the remaining suspensions were centrifuged again, and the pellets were dissolved in 3 mL 10% SDS for at least 24 hours. These suspensions were used for photosensitizer uptake measurement. The fluorescence of dissolved pellets was measured on a spectrofluorimeter (FluoroMax3, SPEX Industries, Edison, N.J.). For EtNBA (1), the excitation wavelength was 625 nm, and the emission spectra of the solution were recorded from 630 to 750 nm. For EtNBS (2), the excitation wavelength was 645 nm, and the range for emission was 650 to 750nm. For EtNBSe (3), the excitation wavelength was 655 nm, and the emission was recorded in the range from 660 to 750 nm. The fluorescence was calculated from the height of the peaks recorded. Calibration curves were made from pure photosensitizer dissolved in 10% SDS and used for determination of sensitizer concentration in the suspension. Uptake values were obtained by dividing the number of nmol of sensitizer in the dissolved pellet by the number of colony-forming units (CFU) obtained by serial dilutions and the number of photosensitizer molecules/cell calculated using Avogadro's number.
(§7) In order to do so, the uptake of dye was measured in terms of molecules per cell by carrying out 10 minute incubations with the same concentration of dyes that was used for photoinactivation, followed by a wash to remove residual incubating solution.
(§8) The bacterial pellets resulting from the incubation with photosensitizer were dissolved in 10% SDS to give a homogeneous solution, and comparison of the resulting fluorescence intensities with a calibration curve prepared with known concentrations of dye in the same solvent yielded the amount of dye in the pellet. […] For the fungus C. albicans, an even higher concentration of dye (20 μM) was used, because the eukaryotic cells are ten times bigger than the prokaryotic bacterial cells.

[8] = system: Escherichia coli (ATCC 25922); test: Dye uptake and binding by microbial cells, E. coli (fluorescence of SDS-dissolved pellets); assay type: cell-based; details: 5 μM dye; for cell uptake (molecules per cell), rank order: 10 minute incubation, wash
Experimental: as §6, §7, §8

[9] = system: Candida albicans (ATCC 18804); test: Dye uptake and binding by microbial cells, C. albicans (fluorescence of SDS-dissolved pellets); assay type: cell-based; details: 20 μM dye
Experimental: as §6, §7, §8

[10] = system: Enterococcus faecalis (ATCC 29212); test: Photodynamic inactivation of E. faecalis (survival fraction by CFU after red light); assay type: cell-based; details: 2 μM dye
Source text: as §1, §4, §5, §6
Illumination was performed either after or before excess dye was washed out. Aliquots of 200 μL of cell suspension were placed in 96-well plates and illuminated with appropriate light at room temperature. Fluences ranged from 0 to 80 Jcm^−2 at an irradiance of 60-100 mWcm^−2. Exact power was measured with a laser power meter (model FM/GS, Coherent, Santa Clara, Calif.).

[11] = Quantum yield of singlet oxygen formation (1,3-diphenylisobenzofuran bleaching); assay type: physicochemical; details: 1,3-diphenylisobenzofuran method, relative to Methylene Blue, 25° C.
Source text: All solvents were reagent grade and used as received.
as §3

In the case of `CN(C)c1ccc2nc3ccc(=[N+](C)C)cc-3sc2c1` [Methylene Blue], the “quantum yield for 1O2 formation of the standard” value [1] is given as 0.50.
In the case of `CCNc1cc2[o+]c3cc(N(CC)CC)ccc3nc2c2ccccc12` [Dye 1, 5-Ethylamino-9-diethylaminobenzo[a]phenoxazinium], the killing of cells ([2]; 80 J/cm^2) is listed as > 97%, the “LogP, partition coefficient” value [3] is listed as 2.69 and the “toxicity in the dark” value [4] is listed as “little or no toxicity in the dark”. For the same molecule, the killing of cells ([5]; wash, 80 J/cm^2) was 90%, the “λfl(nm), fluorescence maximum” value [6] was 660 nm and the “λabs(nm), absorption maximum” value [6] was 632 nm. The “Φfl, absolute fluorescence quantum yield” value [6] was 0.27, the “cell uptake (molecules per cell), rank order” value [7] was “EtNBSe (3)>EtNBS (2)>EtNBA (1)” and the “cell uptake (molecules per cell), rank order” value [8] was “EtNBSe (3)>EtNBS (2)>EtNBA (1)”. The “fraction of total dye added that was bound to the cells” value [9] was “approximately 75%”, the “cell uptake (molecules per cell), comparison with EtNBSe (3)” value ([9]; 10 minute incubation, wash) was “significantly lower” and the killing of cells ([10]; wash, 80 J/cm^2 of 635-nm light) was 95%. For the same molecule, the “1O2, absolute quantum yield for singlet oxygen formation” value (shortened to “1O2, absolute quantum yield”) [11] was 0.003.
For “5-ethylamino-9-diethylaminobenzo[a]phenothiazinium [Dye 2]”, the killing of cells ([2]; 64 J/cm^2) is given as > 98%, the “LogP, partition coefficient” value [3] is given as 2.76 and the “toxicity in the dark” value [4] is given as “little or no toxicity in the dark”. For the same molecule, the killing of cells ([5]; wash, 64 J/cm^2) was “more than 99%”, the “λfl(nm), fluorescence maximum” value [6] was 693 nm and the “λabs(nm), absorption maximum” value [6] was 654 nm. For the same molecule, the “Φfl, absolute fluorescence quantum yield” value [6] was 0.21, the “cell uptake (molecules per cell), rank order” value [7] was “EtNBSe (3)>EtNBS (2)>EtNBA (1)” and the “fraction of total dye added that was bound to the cells” value [8] was “approximately 75%”. The “cell uptake (molecules per cell), rank order” value [8] was “EtNBSe (3)>EtNBS (2)>EtNBA (1)”, the “fraction of total dye added that was bound to the cells” value [9] was “essentially quantitative” and the “comparison of killing curves with and without a wash” value (shortened to “comparison … with and without a wash”) [10] was “the two curves are almost identical”. For the same molecule, the killing of cells ([10]; wash, 64 J/cm^2 of 652-nm light) was > 99.9% and the “1O2, absolute quantum yield” value [11] was 0.03.
For `CCN=c1cc2[se]c3cc(N(CC)CC)ccc3nc-2c2ccccc12` [Dye 3, 5-Ethylamino-9-diethylaminobenzo[a]phenoselenazinium chloride], the killing of cells ([2]; 4 J/cm^2) was “more than 99%”, the logP ([3]; between 2-octanol and pH 7.4 buffered saline) was 2.08 and the “comparison … with and without a wash” value [5] was “bacteria washed free of incubating solution were actually killed slightly (but not significantly) more than those of the non-wash group”. The killing of cells ([5]; wash, 32 J/cm^2) was > 99.9999%, the “killing of cells (logs)” value ([5]; wash, 32 J/cm^2) was > 6 logs and the “λfl(nm), fluorescence maximum” value [6] was 703 nm. For the same molecule, the “λabs(nm), absorption maximum” value [6] was 661 nm, the “Φfl, absolute fluorescence quantum yield” value [6] was 0.03 and the “fraction of total dye added that was bound to the cells” value [7] was “approximately 75%”. The “cell uptake (molecules per cell), rank order” value [7] was “EtNBSe (3)>EtNBS (2)>EtNBA (1)”, the “fraction of total dye added that was bound to the cells” value [8] was “essentially quantitative” and the “cell uptake (molecules per cell), rank order” value [8] was “EtNBSe (3)>EtNBS (2)>EtNBA (1)”. For the same molecule, the “fraction of total dye added that was bound to the cells” value [9] was “essentially quantitative”, the “comparison … with and without a wash” value [10] was “no significant difference in the two killing curves” and the killing of cells ([10]; wash, 8 J/cm^2 of 660-nm light) was > 99.999%. For the same molecule, the “killing of cells (logs)” value ([10]; wash, 8 J/cm^2 of 660-nm light) was 5.5 logs and the “1O2, absolute quantum yield” value [11] was 0.78.
